According to patent publication US7098307B2, “Neo-tryptophan” (Mayo Foundation for Medical Education and Research, priority 1998, dated 2006):
Square brackets hold non-standard residues; d marks the D form. Peptide text beside a SMILES is read from it. Ala(indol-4-yl) = N[C@@H](Cc1cccc2[nH]ccc12)C(=O)O; NMeR = CN[C@@H](CCCNC(=N)N)C(=O)O; Tle = CC(C)(C)[C@H](N)C(=O)O

Assays:
[1] = Degradation in rat intestinal preparation; assay type: in vitro ADME; conditions: pH 7.4, 37° C., read-out: half-time, Rat Intestinal Preparation (converted)
Method: For intestinal preparations, rats were sacrificed by decapitation, and the small intestines removed. The tissue was washed with ice-cold PBS (10 mM, pH 7.4). About […] of intestinal tissue was added to about 10 mL of PBS and homogenized using a Brinkman polytron homogenizer (setting 6). After homogenization, 10 mL of PBS was added to 10 mL of the intestinal homogenate. […] The supernatant was removed and stored at −20° C. until testing. Immediately before incubation with the polypeptide, the intestinal preparation was filtered through a 0.2 μm filter. Testing procedures were similar to those for the plasma tests.
(§1) For the degradation studies, data were plotted in linear form as a semi-log plot with SigmaPlot for Windows Version 4.00. Linear regression on these plots provided the parameters used to calculate the half-time (t1/2) for degradation of each polypeptide. The correlation coefficient (R) for the linear regression was taken as a measure of the goodness-of-fit.

rat NTR1 = biological target: T1, rat NTR1 (Rattus norvegicus, UniProt P20789); test: Competition binding with [3H]NT, membranes of CHO-K1 cells transfected with rat NTR1
T1 construct: expressed in transfected cells; host or cells: CHO-K1
Method: CHO-K1 cells were stably transfected with nucleic acid encoding either the human NTR1 or the rat NTR1, and cultured in 150 mm petri plates with 35 mL of Dulbecco-modified Eagle's medium containing 100 μM minimal essential medium nonessential amino acids (GIBCO) supplemented with 5% (v/v) FetalClone II bovine serum product (Hyclone Labs, Logan, Utah). CHO cells (subculture 9–19) were harvested at confluency. Briefly, the medium from each plate was removed by aspiration, and the cells washed with 6 mL of 50 mM Tris-HCl (pH 7.4) and resuspended in 5–10 mL of Tris-HCl by scraping the cells with a rubber spatula. The resuspended cells were placed into a centrifuge tube and collected by centrifugation at 300× g for five minutes at 4° C. in a GPR centrifuge (Beckman Instruments, Fullerton, Calif.). The cellular pellet (in 50 mM Tris-HCl, 1 mM EDTA, pH 7.4) was stored at […] until radioligand binding was performed.
The supernatant was decanted and discarded, and the cellular pellet was resuspended in 2 mL of Tris-HCl, 1 mM EDTA (pH 7.4) followed by homogenization with a Brinkmann Polytron at setting 6 for ten seconds. Centrifugation was repeated as above and the supernatant was decanted and discarded. The resulting final cellular pellet was resuspended in 50 mM Tris-HCl, lmM EDTA, 0.1% bovine serum albumin, and 0.2 mM bacitracin.
Incubation was at 20° C. for 30 minutes. Each reaction was terminated by addition of cold 0.9% NaCl (5×1.5 mL) followed by rapid filtration through a GF/B filter strip that had been pretreated with 0.2% polyethylenimine.

[2] = Hot plate test (antinociception, % MPE) in rats
[3] = Catalepsy (fixed rearing posture) in mice; assay type: in vivo; conditions: 5 mg/kg ip
Method: The following experiments were performed to assess the ability of NT69L to cause and influence catalepsy. Male Sprague-Dawley rats (150–250 g) or CD-1 mice (24–26 g) were housed in a temperature-controlled room in groups of five with free access to food and water. The animals were kept on a 12 hour light/dark cycle, and all tests were performed during the light cycle. The test for catalepsy is well established and quite simple (Munkvad et al., Brain Behav. Evol. 1:89–100(1968)). […] Thirty minutes after injection, the animals were tested for catalepsy. For rats, the test involved simply placing the animal's fore paws on a suspended metal bar 10 mm in diameter, 11 cm above the counter. The time elapsed until the animal's fore paws touch the counter was recorded. […] For mice, catalepsy was scored based on the time that the mice maintained a fixed rearing posture against the side of the cage (Adams et al., Proc. Natl. Acad. Sci. USA 94:12157–12161 (1997)). The cut-off time was 20 seconds, and each animal was tested three times for each time point.

[4] = Degradation in rat plasma (HPLC peak area); assay type: in vitro ADME; conditions: 25% plasma, 37° C., 0.5 mg/mL polypeptide, read-out: half-time, Plasma Rat (converted)
Description: as §1

α2-adrenergic receptors = test: Radiolabeled competitive binding, human brain tissue, adrenergic α2
dopamine D2 receptors = biological target: T2, dopamine D2 receptors (Homo sapiens, UniProt P14416); test: Radiolabeled competitive binding, human brain tissue, dopamine
T2 construct: Human brain tissue; from tissue; host or cells: human brain tissue

[5] = Apomorphine-induced climbing, sniffing and licking behavior in rats; assay type: in vivo, rat
Method: Apomorphine was used to assess the ability of NT analogs to act as neuroleptics. Briefly, male Sprague-Dawley rats were pretreated intraperitoneally with either NT69L or saline only. Thirty minutes following pretreatment, the rats received a subcutaneous injection of apomorphine (600 μg/kg). Occasionally, the effectiveness of NT69L was assessed by measuring antinociception and hypothermia just prior to apomorphine administration. Control animals included rats receiving NT69L followed by saline only, and rats receiving no treatment. The apomorphine was dissolved in oxygen-free boiled 0.9% NaCl solution containing 0.1% ascorbic acid and 0.1% metabisulfite to prevent oxidation. The volume of injection was 1 mL/kg under the loose skin at the back of the animal's neck. Inunediately following injection, the rats were placed in cages for observation. About 5–10 minutes later, behavioral monitoring was initiated and lasted for one hour. Climbing episodes were measured by observing the number of times the rat moved up and down in a vertical position during a two minute observation period. Statistical analysis was done using the Student's t-test with P<0.05 being considered significant. Graphs and ED50 data were generated using GraphPad Prism® software (version 2.01, GraphPad Software, Inc., San Diego, Calif.).

[6] = 1 mg/kg ip, 30 minutes before apomorphine

CN[C@@H](CCCNC(=N)N)C(=O)N[C@@H](CCCCN)C(=O)N1CCC[C@H]1C(=O)N[C@@H](Cc1cccc2[nH]ccc12)C(=O)N[C@H](C(=O)N[C@@H](CC(C)C)C(=O)O)C(C)(C)C [NT69L] (H-[NMeR]KP[Ala(indol-4-yl)][Tle]L-OH; N-terminus and C-terminus assumed)
half-life [1]: 4.1 h | Kd (rat NTR1): 0.00082 ± 7e-05 µM | increase in binding affinity at the rat receptor versus Eisai (rat NTR1): 6 fold | time up to which peak % MPE of 100% was observed ([2]; 1 mg/kg intraperitoneal): about 200 minutes | time of Peak % MPE ([2]; 1 mg/kg intraperitoneal, rats): 300 min | % MPE after the first injection ([2]; 1 mg/kg ip daily, day 1): 100% | analgesic effect after the second injection ([2]; 1 mg/kg ip daily, day 2): no analgesic effect | analgesic effect after the third injection ([2]; 1 mg/kg ip daily, day 3): no analgesic effect | analgesic effect on 5× challenge ([2]; 5 mg/kg ip after four days at 1 mg/kg ip): no analgesic effect | induction of antinociception (hot plate) ([2]; intraperitoneal administration (NT64L 1 mg/kg)): did induce | ED50 % MPE ([2]; intraperitoneal, @ 90 min): 0.3 mg/kg | peak % MPE value ([2]; nasal, 5 mg/kg, at 60 minutes): 70% | peak % MPE value ([2]; oral, 20 mg/kg): 11% | time of Peak % MPE ([2]; oral, 20 mg/kg): 30 min | catalepsy in mice [3]: caused no catalepsy | half-life at 0.5 mg/mL [4]: 250 h | Kd (α2-adrenergic receptors): 58.6 µM | Kd (dopamine D2 receptors): 13.3 µM | effect on apomorphine-induced climbing behavior [5, 6]: long-lasting blockade of the climbing behavior | effect on apomorphine-induced sniffing and licking behaviors [5, 6]: did not influence | effect on apomorphine-induced climbing behavior ([5]; 5 mg/kg ip): completely blocked | ED50 blockade of apomorphine-induced climbing ([5]; ip, 75 minutes after NT69L, 45 minutes after apomorphine 600 μg/kg sc): 0.016 mg/kg
